Test results taken from publication PMC8924359, “ZDQ-0620, a Novel Phosphatidylinositol 3-Kinase Inhibitor, Inhibits Colorectal Carcinoma Cell Proliferation and Suppresses Angiogenesis by Attenuating PI3K/AKT/mTOR Pathway” (Frontiers in Oncology, 2022).

How the values were obtained:
Type in all cases: biochemical
[1] = target: T1, PI3Kγ (Homo sapiens, UniProt P48736); test: ADP-Glo lipid kinase assay
T1 construct: gene PIK3CG
Source text: ADP-Glo lipid kinase assay on PI3Kγ | IC50 of ZDQ-0620 against PI3K kinase in vitro.

[2] = target: T2, PI3Kβ (Homo sapiens, UniProt P42338); test: ADP-Glo lipid kinase assay; supported by CETSA in HCT116 cells (weaker than PI3Kα)
T2 construct: gene PIK3CB
Source text: ADP-Glo lipid kinase assay; supported by CETSA in HCT116 cells (weaker than PI3Kα) on PI3Kβ | IC50 of ZDQ-0620 against PI3K kinase in vitro.

[3] = target: T3, PI3Kδ (Homo sapiens, UniProt O00329); test: ADP-Glo lipid kinase assay
T3 construct: gene PIK3CD
T3 sequence (O00329 1-1044): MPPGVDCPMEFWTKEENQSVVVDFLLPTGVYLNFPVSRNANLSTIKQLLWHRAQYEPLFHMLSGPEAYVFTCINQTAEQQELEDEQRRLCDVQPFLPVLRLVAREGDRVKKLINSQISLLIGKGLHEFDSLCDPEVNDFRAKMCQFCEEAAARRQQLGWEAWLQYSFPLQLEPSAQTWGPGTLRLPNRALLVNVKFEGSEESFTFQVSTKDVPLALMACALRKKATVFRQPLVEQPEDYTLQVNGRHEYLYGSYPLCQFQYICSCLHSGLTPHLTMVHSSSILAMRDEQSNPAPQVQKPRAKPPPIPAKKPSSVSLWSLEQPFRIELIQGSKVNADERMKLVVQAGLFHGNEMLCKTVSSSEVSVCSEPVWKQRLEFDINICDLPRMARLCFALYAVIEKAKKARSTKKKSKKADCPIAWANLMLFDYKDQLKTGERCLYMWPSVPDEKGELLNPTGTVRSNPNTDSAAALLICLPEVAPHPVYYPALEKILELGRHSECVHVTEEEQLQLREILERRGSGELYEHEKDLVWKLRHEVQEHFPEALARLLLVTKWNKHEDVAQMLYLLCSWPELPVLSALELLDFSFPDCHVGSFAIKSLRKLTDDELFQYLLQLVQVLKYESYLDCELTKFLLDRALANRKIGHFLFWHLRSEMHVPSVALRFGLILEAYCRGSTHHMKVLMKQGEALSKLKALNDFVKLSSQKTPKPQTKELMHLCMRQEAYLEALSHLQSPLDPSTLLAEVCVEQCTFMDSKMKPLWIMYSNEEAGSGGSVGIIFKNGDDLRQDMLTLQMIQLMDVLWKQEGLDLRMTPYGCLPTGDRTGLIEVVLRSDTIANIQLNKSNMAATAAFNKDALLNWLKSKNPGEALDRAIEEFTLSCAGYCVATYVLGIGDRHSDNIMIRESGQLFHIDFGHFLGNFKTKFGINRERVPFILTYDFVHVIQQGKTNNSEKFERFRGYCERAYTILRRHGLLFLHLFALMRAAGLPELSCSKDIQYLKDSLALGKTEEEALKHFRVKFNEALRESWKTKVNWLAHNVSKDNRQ
Source text: ADP-Glo lipid kinase assay on PI3Kδ | IC50 of ZDQ-0620 against PI3K kinase in vitro.

[4] = target: T4, PI3Kα (Homo sapiens, UniProt P42336); test: ADP-Glo lipid kinase assay; supported by CETSA/ITDRF-CETSA in HCT116 cells
T4 construct: gene PIK3CA
T4 sequence (P42336 whole entry): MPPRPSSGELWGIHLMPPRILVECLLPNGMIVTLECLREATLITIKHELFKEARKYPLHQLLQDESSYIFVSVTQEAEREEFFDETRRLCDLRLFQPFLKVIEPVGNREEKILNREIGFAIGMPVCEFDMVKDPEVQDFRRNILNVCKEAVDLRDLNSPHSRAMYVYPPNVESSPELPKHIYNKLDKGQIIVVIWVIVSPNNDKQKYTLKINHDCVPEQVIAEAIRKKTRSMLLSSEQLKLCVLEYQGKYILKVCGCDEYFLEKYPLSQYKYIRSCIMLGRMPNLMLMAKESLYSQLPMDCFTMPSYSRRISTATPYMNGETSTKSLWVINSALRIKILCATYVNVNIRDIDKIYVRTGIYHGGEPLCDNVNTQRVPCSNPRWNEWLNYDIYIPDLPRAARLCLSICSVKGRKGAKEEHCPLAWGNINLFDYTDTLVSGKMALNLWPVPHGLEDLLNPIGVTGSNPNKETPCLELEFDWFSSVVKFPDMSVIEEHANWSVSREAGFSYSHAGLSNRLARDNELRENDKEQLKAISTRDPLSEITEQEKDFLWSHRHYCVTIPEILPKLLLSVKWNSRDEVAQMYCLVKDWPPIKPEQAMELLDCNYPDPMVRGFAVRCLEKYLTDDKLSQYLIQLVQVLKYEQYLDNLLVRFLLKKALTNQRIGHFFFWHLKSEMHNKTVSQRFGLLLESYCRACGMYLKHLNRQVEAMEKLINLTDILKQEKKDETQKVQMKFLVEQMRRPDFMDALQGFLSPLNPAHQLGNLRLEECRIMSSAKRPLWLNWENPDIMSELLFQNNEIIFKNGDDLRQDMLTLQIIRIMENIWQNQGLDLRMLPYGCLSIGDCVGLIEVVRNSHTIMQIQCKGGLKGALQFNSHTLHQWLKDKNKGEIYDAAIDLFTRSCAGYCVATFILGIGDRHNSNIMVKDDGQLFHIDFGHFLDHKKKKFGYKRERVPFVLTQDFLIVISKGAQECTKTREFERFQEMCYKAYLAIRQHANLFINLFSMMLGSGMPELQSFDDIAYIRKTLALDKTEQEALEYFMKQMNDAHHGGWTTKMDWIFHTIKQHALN

T2 sequence (P42338 whole entry): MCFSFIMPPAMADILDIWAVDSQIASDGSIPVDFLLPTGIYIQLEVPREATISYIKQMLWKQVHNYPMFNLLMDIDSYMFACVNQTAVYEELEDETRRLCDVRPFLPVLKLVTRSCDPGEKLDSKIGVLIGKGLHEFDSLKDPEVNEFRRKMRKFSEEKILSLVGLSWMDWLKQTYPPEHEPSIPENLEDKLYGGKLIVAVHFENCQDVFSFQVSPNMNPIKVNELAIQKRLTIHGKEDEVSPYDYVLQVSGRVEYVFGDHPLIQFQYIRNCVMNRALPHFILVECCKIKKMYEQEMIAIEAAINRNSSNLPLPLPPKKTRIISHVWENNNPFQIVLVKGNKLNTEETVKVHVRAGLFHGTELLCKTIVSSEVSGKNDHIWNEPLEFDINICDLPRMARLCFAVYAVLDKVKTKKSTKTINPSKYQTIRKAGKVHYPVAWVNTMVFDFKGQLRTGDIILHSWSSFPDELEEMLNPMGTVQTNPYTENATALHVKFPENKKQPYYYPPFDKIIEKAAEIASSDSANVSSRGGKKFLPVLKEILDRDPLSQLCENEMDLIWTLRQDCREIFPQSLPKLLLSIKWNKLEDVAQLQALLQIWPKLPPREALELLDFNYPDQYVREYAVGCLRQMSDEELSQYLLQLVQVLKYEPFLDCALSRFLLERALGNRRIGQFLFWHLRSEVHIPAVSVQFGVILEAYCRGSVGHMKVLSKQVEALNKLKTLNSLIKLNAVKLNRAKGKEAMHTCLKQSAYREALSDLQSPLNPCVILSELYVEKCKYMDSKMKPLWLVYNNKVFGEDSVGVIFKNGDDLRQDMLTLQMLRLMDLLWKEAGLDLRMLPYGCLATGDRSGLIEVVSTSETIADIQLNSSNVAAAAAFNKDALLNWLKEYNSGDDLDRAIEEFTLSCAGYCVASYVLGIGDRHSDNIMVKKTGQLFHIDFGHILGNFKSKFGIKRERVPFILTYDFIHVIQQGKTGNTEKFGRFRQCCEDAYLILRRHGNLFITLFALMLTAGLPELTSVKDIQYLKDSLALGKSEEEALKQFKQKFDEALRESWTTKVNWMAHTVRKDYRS
T1 sequence (P48736 whole entry): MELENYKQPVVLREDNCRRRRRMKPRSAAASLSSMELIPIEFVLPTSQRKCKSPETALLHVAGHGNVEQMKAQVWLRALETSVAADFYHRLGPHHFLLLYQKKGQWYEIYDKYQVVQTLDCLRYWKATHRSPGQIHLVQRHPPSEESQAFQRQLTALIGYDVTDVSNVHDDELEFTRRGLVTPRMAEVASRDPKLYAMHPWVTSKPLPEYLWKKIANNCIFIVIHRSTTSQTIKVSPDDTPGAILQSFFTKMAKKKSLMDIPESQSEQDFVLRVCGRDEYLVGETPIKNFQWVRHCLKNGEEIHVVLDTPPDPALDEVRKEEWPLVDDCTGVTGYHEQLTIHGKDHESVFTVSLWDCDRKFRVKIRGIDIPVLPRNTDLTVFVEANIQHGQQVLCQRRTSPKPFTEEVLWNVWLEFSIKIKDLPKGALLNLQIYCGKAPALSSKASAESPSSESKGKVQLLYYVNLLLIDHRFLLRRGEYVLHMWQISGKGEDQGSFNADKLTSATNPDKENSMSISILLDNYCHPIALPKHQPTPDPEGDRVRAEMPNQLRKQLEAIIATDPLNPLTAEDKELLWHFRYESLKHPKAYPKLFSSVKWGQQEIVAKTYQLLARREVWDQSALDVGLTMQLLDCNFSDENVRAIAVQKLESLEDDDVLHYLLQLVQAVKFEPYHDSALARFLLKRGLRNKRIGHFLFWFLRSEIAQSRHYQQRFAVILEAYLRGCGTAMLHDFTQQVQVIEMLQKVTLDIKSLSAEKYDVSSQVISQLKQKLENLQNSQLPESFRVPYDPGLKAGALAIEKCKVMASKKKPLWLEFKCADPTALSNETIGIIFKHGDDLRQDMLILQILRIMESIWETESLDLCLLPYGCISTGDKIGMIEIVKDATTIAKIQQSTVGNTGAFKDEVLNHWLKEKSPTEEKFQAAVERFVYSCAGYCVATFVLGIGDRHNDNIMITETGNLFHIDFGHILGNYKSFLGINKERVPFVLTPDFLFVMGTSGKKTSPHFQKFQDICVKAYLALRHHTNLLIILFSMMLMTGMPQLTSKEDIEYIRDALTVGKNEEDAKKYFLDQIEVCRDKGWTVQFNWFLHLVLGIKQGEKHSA

COc1ncc(-c2ccc3c(c2)N(CCCN2CCOCC2)C(=O)CO3)cc1NS(=O)(=O)c1ccc(F)cc1F [ZDQ-0620, 2,4-difluoro-N-(2-methoxy-5-(4-(3-morpholinopropyl)-3-oxo-3,4-dihydro-2H-benzo[b][1,4]oxazin-6-yl)pyridin-3-yl)benzenesulfonamide]
IC50 [1]: 55 nM
IC50 [2]: 93 nM
IC50 [3]: 152 nM
IC50 [4]: 0.5 nM
